Where two headings read alike, the source gives them in different places. *1 amine or outer side, *2 acyl side, *3 side chain or, on linkers, in order; H or OH if unused. Where a SMILES comes first, the peptide text is derived from it. Bridges are numbered along the chain shown (N, C = ends). [ ]: non-standard residue; d: D form. The star is where a group is joined. hTyr(3S-OH,4S-OH,3'-OSO3H) = N[C@H](C(=O)O)[C@H](O)[C@@H](O)c1ccc(O)c(OS(=O)(=O)O)c1; Orn(4R-OH,5R-OH) = O=C([C@H](C[C@@H](O)[C@@H](O)N[*:3])N[*:1])[*:2]; Pro(3S-OH,4S-Me) = C[C@H]1CN[C@H](C(=O)O)[C@H]1O; X1 = CCCCCOc1ccc(-c2cc(-c3ccc(C(=O)*)cc3)no2)cc1; Gln(3R-OH) = NC(=O)C[C@@H](O)[C@H](N)C(=O)O; Hyp = O=C(O)[C@@H]1C[C@@H](O)CN1
Experiments:
[1] = Pharmacokinetics following intravenous administration in beagle dogs; assay type: in vivo; conditions: 1.4 mg/kg IV slow bolus
Procedure: Echinocandin class compounds were administered to beagle dogs weighing approximately 6-10 kg. Each compound was dosed at 1.4 mg/kg in aqueous saline (with or without 0.5% Tween) over course of 1-10 minutes. […] The dogs were fasted at least 12 hours prior to each dosing and offered food after the 4-hour blood sample was taken; water was withheld for 1 hour prior to and 4 hours following each dosing event. The dose for each animal was based on its most recent body weight. The test article was injected intravenously via a catheter placed in the cephalic vein as a slow bolus.
Blood was collected via the jugular vein. All blood samples (1 mL each) were collected into K3EDTA tubes. Following blood collection, the samples were immediately inverted several times and were held on wet ice pending centrifugation. The samples were centrifuged within 30 minutes of collection under refrigeration (˜5° C. for 10 minutes at 2000 g) to obtain plasma. The plasma was frozen immediately on dry ice after separation. The plasma samples were stored at approximately ˜70° C. until analysis.
Plasma (100 μL) was precipitated with 400 μL of 0.1% formic acid in acetonitrile containing the internal standard (100 ng/mL pneumocandin). The samples were then capped and vortexed for about 30 seconds followed by centrifugation at 14,000 rpm at room temperature for 10 minutes. Following centrifugation 200 μL of supernatant was transferred to plastic autosampler vials containing 200 μL of 0.1% formic acid in water and vortexed. Samples were then analyzed by LCMSMS.
All pharmacokinetic calculations were performed using WinNonlin version 4.1 (Pharsight Corp) by noncompartmental analysis.

[2] = Pharmacokinetics (oral bioavailability) following oral administration in beagle dogs; assay type: in vivo; parameters: key to Improvement (ratio of % oral bioavailability to saline): NI = no improvement in oral bioavailability in comparison to saline; conditions: for % BA in saline: oral about 7-10 mg/kg, formulation 11 (saline)
Procedure: Echinocandin class compounds were administered to beagle dogs weighing approximately 6-10 kg. Each animal received the appropriate prepared test article in a single oral capsule dose at a target dose level of about 7-10 mg/kg. Immediately after dosing, each animal was offered 20 mL-30 mL of water orally (Groups 1-4) or 30 mL of water orally to assist in swallowing the capsule.
Animals were treated and blood samples were drawn and analyzed as provided in Example 1.
The bioavailability of each oral dose formulation was estimated by comparison to intravenous plasma concentration data in dogs from Example 1. The results provided in Table 3 show the oral bioavailability for the echinocandin class compound in saline (formulation 11), and the improvement over saline with the use of a formulation of the invention.

[3] = Rabbit, literature values; cited from earlier work
[4] = Mouse, literature values; cited from earlier work
[5] = Rat, literature values; cited from earlier work
[6] = Man, literature values; cited from earlier work

AUC [1] [ng·h/mL] | Cmax [1] [ng/mL] | Mean clearance [1] [mL/min/kg] | T1/2 [1] [h] | Volume of Distribution [1] [L/kg] | % BA in saline [2] [%] | % BA ([2]; oral, formulation 1) | Improvement (ratio of % oral bioavailability to saline) ([2]; oral, formulation 1) | Improvement (ratio of % oral bioavailability to saline) ([2]; oral, formulation 5) | Improvement (ratio of % oral bioavailability to saline) ([2]; oral, formulation 7) | Improvement (ratio of % oral bioavailability to saline) ([2]; oral, formulation 3) | Improvement (ratio of % oral bioavailability to saline) ([2]; oral, formulation 6) | SMILES | Half-life [3] [h] | Half-life [4] [h] | Half-life [5] [h] | Half-life [6] [h]
50800 | 3630 | 0.377 | 21.0 | 0.687 | 5.15 |  | NI | NI |  |  |  | CCCCCOc1ccc(-c2ccc(-c3ccc(C(=O)NC4CC(O)C(NCCNCCO)NC(=O)C5C(O)C(C)CN5C(=O)C(C(C)O)NC(=O)C(C(O)C(O)c5ccc(O)cc5)NC(=O)C5CC(O)CN5C(=O)C(C(C)O)NC4=O)cc3)cc2)cc1 (centres unmarked) [Compound 39] |  |  |  | 
46200 | 2660 | 0.365 | 27.6 | 0.874 |  |  | NI | NI | NI | NI |  | CCCCCOc1ccc(-c2ccc(-c3ccc(C(=O)NC4CC(O)C(NCC[N+](C)(C)C)NC(=O)C5C(O)C(C)CN5C(=O)C(C(C)O)NC(=O)C(C(O)C(O)c5ccc(O)cc5)NC(=O)C5CC(O)CN5C(=O)C(C(C)O)NC4=O)cc3)cc2)cc1 (centres unmarked) [Compound 37] |  |  |  | 
67167 | 4080 | 0.219 | 33.7 | 0.627 |  |  |  | NI | NI |  | NI | CCCCCOc1ccc(-c2ccc(-c3ccc(C(=O)NC4CC(O)C(OCCOCCN)NC(=O)C5C(O)C(C)CN5C(=O)C(C(C)O)NC(=O)C(C(O)C(O)c5ccc(O)cc5)NC(=O)C5CC(O)CN5C(=O)C(C(C)O)NC4=O)cc3)cc2)cc1 (centres unmarked) [Compound 26] |  |  |  | 

The next lines start with the molecule.

SMILES | AUC [1] [ng·h/mL] | Cmax [1] [ng/mL] | Mean clearance [1] [mL/min/kg] | T1/2 [1] [h] | Volume of Distribution [1] [L/kg] | % BA in saline [2] [%] | % BA ([2]; oral, formulation 1) | Improvement (ratio of % oral bioavailability to saline) ([2]; oral, formulation 1) | Improvement (ratio of % oral bioavailability to saline) ([2]; oral, formulation 5) | Improvement (ratio of % oral bioavailability to saline) ([2]; oral, formulation 7) | Improvement (ratio of % oral bioavailability to saline) ([2]; oral, formulation 3) | Improvement (ratio of % oral bioavailability to saline) ([2]; oral, formulation 6) | Half-life [3] [h] | Half-life [4] [h] | Half-life [5] [h] | Half-life [6] [h]
CCCCCOc1ccc(-c2ccc(-c3ccc(C(=O)NC4CC(O)C(OCCOCCO)NC(=O)C5C(O)C(C)CN5C(=O)C(C(C)O)NC(=O)C(C(O)C(O)c5ccc(O)cc5)NC(=O)C5CC(O)CN5C(=O)C(C(C)O)NC4=O)cc3)cc2)cc1 (centres unmarked) [Compound 21] | 113000 | 6740 | 0.145 | 28.9 | 0.361 | 4.70 | (6.42%) | 1.3 | NI | NI |  |  |  |  |  | 
CCCCCOc1ccc(-c2ccc(-c3ccc(C(=O)NC4CC(O)C(OCCOCCOC)NC(=O)C5C(O)C(C)CN5C(=O)C(C(C)O)NC(=O)C(C(O)C(O)c5ccc(O)cc5)NC(=O)C5CC(O)CN5C(=O)C(C(C)O)NC4=O)cc3)cc2)cc1 (centres unmarked) [Compound 19] | 96100 | 7700 | 0.202 | 18.9 | 0.331 | 5.74 |  | NI | NI |  |  |  |  |  |  | 
CCCCCOc1ccc(-c2cc(-c3ccc(C(=O)N[C@H]4C[C@@H](O)[C@@H](O)NC(=O)[C@@H]5[C@@H](O)[C@@H](C)CN5C(=O)[C@H]([C@H](O)CC(N)=O)NC(=O)[C@H]([C@H](O)[C@@H](O)c5ccc(O)c(OS(=O)(=O)O)c5)NC(=O)[C@@H]5C[C@@H](O)CN5C(=O)[C@H]([C@@H](C)O)NC4=O)cc3)no2)cc1 [Micafungin, micafungin] (X1-[Orn(4R-OH,5R-OH)]T[Hyp][hTyr(3S-OH,4S-OH,3'-OSO3H)][Gln(3R-OH)][Pro(3S-OH,4S-Me)]; lactam 1-C) |  |  |  |  |  |  |  |  |  |  |  |  | 3 | 7 to 13 | 5 | 10 to 17

— patent US11654196B2, “Dosing regimens for echinocandin class compounds” (priority 2012, dated 2023)
